Legend:
mandarin oranges = test: Citrus decay during storage at 2° C.; type: in vivo; details: Mandarin Orange
Protocol: Approximately 1000 mandarin oranges were treated shortly after harvest with compositions comprising performic acid, water, or an Imazalil composition, and then stored at 2° C. After 22 days, the number of rotten fruits, and the percent decay were assessed. A second trial was conducted with ten tons of mandarin oranges treated with a performic acid composition or Imazalil and stored and then stored at 2° C. The study was repeated with Red Grapefruit. The compositions comprising performic acid and the manner of applying the compositions varied throughout the course of the study within the parameters summarized in Table 6.
The compositions were applied to the citrus at room temperature with a fine spray of the performic acid containing composition and then treated either a) with a drain wash of water (either cold or heated to 55° C.) with a 1:9 dilution in tap water of the composition without formic acid, orb) with a drain wash of water (either cold or heated to 55° C.), followed by a fine spray at room temperature with a formulation identical to the performic acid formulation but without formic acid. Thus, the methods of applying in this study were: • a. Application of the performic acid containing composition at room temperature with fine spray, then treatment with a drain wash of cold water, and then a fine spray at room temperature with a formula without formic acid (i.e. without the performic acid source) • b. Application of the performic acid containing composition at room temperature with fine spray, then treatment with a drain wash of heated water (to about 55° C.), and then a fine spray at room temperature with a formula without formic acid • c. Application of the performic acid containing composition at room temperature with fine spray and then treatment with a drain wash of cold water that contained the formula at a diluted state at a ratio of 1:9 but without formic acid • d. Application of the performic acid containing composition at room temperature with fine spray and then treatment with a drain wash of heated water (to about 55° C.) that contained the formula at a diluted state at a ratio of 1:9 but without formic acid
All treatments were conducted at a total rate of 5-20 liter of formula per ton of different Citrus varieties.

[1] = system: Aspergillus niger (ATCC 16404); test: BS EN 1650:1998 quantitative suspension test, fungicidal activity; type: cell-based; details: 300 ppm; same test conditions (1 minute, 20° C., dirty conditions)
Protocol: (§1) This is a quantitative suspension test to evaluate the activity of chemical disinfectants and antiseptics used in food, industrial, domestic and institutional areas against fungi, yeasts and molds. The same composition tested in Example 22 was tested in this case as well.
(§2) As is known in the art, EN 1650 specifies a test method and the minimum requirements for anti-fungal, anti-yeast and anti-mold activity of chemical disinfectant and antiseptic products that form a homogeneous, physically stable preparation in hard water and that are used in food, industrial, domestic and institutional areas, excluding areas and situations where disinfection is medically indicated and excluding products used on living tissues except those for hand hygiene in the above-considered areas. […]
(§3) A test suspension of yeast cells and/or mold spores in a solution of interfering substance (bovine albumin, 3 g/l) was added to a prepared sample of the product under test diluted in hard water. […] (If a suitable neutralizer could be found, membrane filtration was used.) The number of surviving fungi, yeast cells or mold spores in each sample was determined and the reduction in viable counts was calculated. […]

[2] = system: Penecillium w.t. (wild type); test: as above; type: cell-based; details: 300 ppm; same test conditions (1 minute, 20° C., dirty conditions)
Protocol: as §1, §2, §3

Compound: C=CCOC(Cn1ccnc1)c1ccc(Cl)cc1Cl (stereo not drawn) [Imazalil]
- % Decay (mandarin oranges; 22 days after treatment): 6.8%
- No. Rotten Fruits (mandarin oranges; 22 days after treatment): 59
- % Decay (mandarin oranges; 46 days after treatment): 1.75%
- No. Rotten Fruits (mandarin oranges; 46 days after treatment): 125

Compound: CC(=O)OO [peracetic acid]
- compliance with EN 1650 [1]: did not meet the standard
- compliance with EN 1650 [2]: did not meet the standard

From US10212956B2, “Compositions and methods of treating edible matter and substrates therefor” (PIMI AGRO CLEANTECH LTD., priority 2010, dated 2019)
